Experimental data reported in patent US20170190671A1, “BIS(ARYL)CATECHOL DERIVATIVES AS HERBICIDES” (E I DU PONT DE NEMOURS AND COMPANY, priority 2014, published 2017).

Columns and labels:
Type in all cases: in vivo
[1] = system: pigweed (Amaranthus retroflexus); experiment: Test A preemergence; details: Amaranthus retroflexus, pre-emergence, 240 h, 0 to 100 scale (0 no effect, 100 complete control), read-out: Pigweed plant response rating; for pest or weed control at 31 g/ha: 31 g ai/ha; for pest or weed control at 125 g/ha: 125 g ai/ha
Method in brief: (§1)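 Injury scores run from 0, no effect, to 100, complete control, judged by eye against untreated plants roughly 10 days after treatment. Chemicals carried a surfactant in a non-phytotoxic solvent and went onto loam–sand soil preemergence or onto one- to two-leaf seedlings postemergence.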

[2] = system: ragweed (common ragweed, Ambrosia elatior); experiment: Test A preemergence; details: Ambrosia artemisiifolia, pre-emergence, 240 h, 0 to 100 scale (0 no effect, 100 complete control), read-out: Ragweed plant response rating; for pest or weed control at 31 g/ha: 31 g ai/ha; for pest or weed control at 125 g/ha: 125 g ai/ha
Method in brief: as §1

[3] = system: Italian ryegrass (Lolium multiflorum); experiment: Test A preemergence; details: Lolium multiflorum, pre-emergence, 240 h, 0 to 100 scale (0 no effect, 100 complete control), read-out: Ryegrass, Italian plant response rating; for pest or weed control at 31 g/ha: 31 g ai/ha; for pest or weed control at 125 g/ha: 125 g ai/ha
Method in brief: as §1

[4] = system: barnyardgrass (Echinochloa crus-galli); experiment: Test A preemergence; details: Echinochloa crus-galli, pre-emergence, 240 h, 0 to 100 scale (0 no effect, 100 complete control), read-out: Barnyardgrass plant response rating; for pest or weed control at 31 g/ha: 31 g ai/ha; for pest or weed control at 125 g/ha: 125 g ai/ha
Method in brief: as §1

[5] = system: giant foxtail (Setaria faberii); experiment: Test A preemergence; details: Setaria faberi, pre-emergence, 240 h, 0 to 100 scale (0 no effect, 100 complete control), read-out: Foxtail, Giant plant response rating; for pest or weed control at 31 g/ha: 31 g ai/ha; for pest or weed control at 125 g/ha: 125 g ai/ha
Method in brief: as §1

[6] = system: kochia (Kochia scoparia); experiment: Test A preemergence; details: Bassia scoparia, pre-emergence, 240 h, 0 to 100 scale (0 no effect, 100 complete control), read-out: Kochia plant response rating; for pest or weed control at 31 g/ha: 31 g ai/ha; for pest or weed control at 125 g/ha: 125 g ai/ha
Method in brief: as §1

[7] = system: rice (Oryza sativa); experiment: Test B flooded paddy; details: Oryza sativa, 336 h; 250 g ai/ha, Flood, 13 to 15 days, scale 0 (no effect) to 100 (complete control); read-out: Plant response rating, Rice
Method in brief: (§2)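 Test compounds are applied straight into paddy water held 3 cm above the soil surface, with that flood maintained for the whole test. After 13 to 15 days in the greenhouse, each species is scored visually relative to controls.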

[8] = system: sedge, umbrella (small-flower umbrella sedge, Cyperus difformis); experiment: Test B flooded paddy; details: Cyperus difformis, 336 h; 250 g ai/ha, Flood, 13 to 15 days, scale 0 (no effect) to 100 (complete control); read-out: Plant response rating, Sedge, Umbrella
Method in brief: as §2

[9] = system: ducksalad (Heteranthera limosa); experiment: Test B flooded paddy; details: Heteranthera limosa, 336 h; 250 g ai/ha, Flood, 13 to 15 days, scale 0 (no effect) to 100 (complete control); read-out: Plant response rating, Ducksalad
Method in brief: as §2

[10] = system: barnyardgrass (Echinochloa crus-galli); experiment: Test B flooded paddy; details: Echinochloa crus-galli, 336 h; 250 g ai/ha, Flood, 13 to 15 days, scale 0 (no effect) to 100 (complete control); read-out: Plant response rating, Barnyardgrass
Method in brief: as §2

[11] = system: galium (catchweed bedstraw, Galium aparine); experiment: Test A postemergence; details: Galium, post-emergence, 240 h, 0 to 100 scale, read-out: Plant response rating, Galium; for pest or weed control at 31 g/ha: 31 g ai/ha; for pest or weed control at 125 g/ha: 125 g ai/ha
Method in brief: as §1

[12] = system: pigweed (Amaranthus retroflexus); experiment: Test A postemergence; details: Amaranthus retroflexus, post-emergence, 240 h, 0 to 100 scale, read-out: Plant response rating, Pigweed; for pest or weed control at 31 g/ha: 31 g ai/ha; for pest or weed control at 125 g/ha: 125 g ai/ha
Method in brief: as §1

[13] = system: corn (Zea mays); experiment: Test A postemergence; details: Zea mays, post-emergence, 240 h, 0 to 100 scale; for Corn plant response rating (crop injury, 0 = no effect, 100 = complete kill) at 31 g/ha: 31 g ai/ha; for Corn plant response rating (crop injury, 0 = no effect, 100 = complete kill) at 125 g/ha: 125 g ai/ha
Method in brief: as §1

[14] = system: wheat (Triticum aestivum); experiment: Test A postemergence; details: Triticum aestivum, post-emergence, 240 h, 0 to 100 scale, read-out: Plant response rating, Wheat; for plant injury at 31 g/ha: 31 g ai/ha; for plant injury at 125 g/ha: 125 g ai/ha
Method in brief: as §1

[15] = system: ragweed (common ragweed, Ambrosia elatior); experiment: Test A postemergence; details: Ambrosia artemisiifolia, post-emergence, 240 h, 0 to 100 scale, read-out: Plant response rating, Ragweed; for pest or weed control at 31 g/ha: 31 g ai/ha; for pest or weed control at 125 g/ha: 125 g ai/ha
Method in brief: as §1

[16] = system: Italian ryegrass (Lolium multiflorum); experiment: Test A postemergence; details: Lolium multiflorum, post-emergence, 240 h, 0 to 100 scale, read-out: Plant response rating, Ryegrass, Italian; for pest or weed control at 31 g/ha: 31 g ai/ha; for pest or weed control at 125 g/ha: 125 g ai/ha
Method in brief: as §1

[17] = system: barnyardgrass (Echinochloa crus-galli); experiment: Test A postemergence; details: Echinochloa crus-galli, post-emergence, 240 h, 0 to 100 scale, read-out: Plant response rating, Barnyardgrass; for pest or weed control at 31 g/ha: 31 g ai/ha; for pest or weed control at 125 g/ha: 125 g ai/ha
Method in brief: as §1

[18] = system: giant foxtail (Setaria faberii); experiment: Test A postemergence; details: Setaria faberi, post-emergence, 240 h, 0 to 100 scale, read-out: Plant response rating, Foxtail, Giant; for pest or weed control at 31 g/ha: 31 g ai/ha; for pest or weed control at 125 g/ha: 125 g ai/ha
Method in brief: as §1

[19] = system: blackgrass (Alopecurus myosuroides); experiment: Test A postemergence; details: Alopecurus myosuroides, post-emergence, 240 h, 0 to 100 scale, read-out: Plant response rating, Blackgrass; for pest or weed control at 31 g/ha: 31 g ai/ha; for pest or weed control at 125 g/ha: 125 g ai/ha
Method in brief: as §1

[20] = system: kochia (Kochia scoparia); experiment: Test A postemergence; details: Bassia scoparia, post-emergence, 240 h, 0 to 100 scale, read-out: Plant response rating, Kochia; for pest or weed control at 31 g/ha: 31 g ai/ha; for pest or weed control at 125 g/ha: 125 g ai/ha
Method in brief: as §1

SMILES	pest or weed control at 31 g/ha [1]	pest or weed control at 125 g/ha [1]	pest or weed control at 31 g/ha [2]	pest or weed control at 125 g/ha [2]	pest or weed control at 31 g/ha [3]	pest or weed control at 125 g/ha [3]	pest or weed control at 31 g/ha [4]	pest or weed control at 125 g/ha [4]	pest or weed control at 31 g/ha [5]	pest or weed control at 125 g/ha [5]	pest or weed control at 31 g/ha [6]	pest or weed control at 125 g/ha [6]	plant injury at 250 g/ha [7]	pest or weed control at 250 g/ha [8]	pest or weed control at 250 g/ha [9]	pest or weed control at 250 g/ha [10]	pest or weed control at 31 g/ha [11]	pest or weed control at 125 g/ha [11]	pest or weed control at 31 g/ha [12]	pest or weed control at 125 g/ha [12]	also measured
FC(F)c1cccc(Oc2ncc(Br)cn2)c1Oc1ncc(Cl)cn1 [Compound 41]	100%	100%	0%	60%	0%	30%	20%	80%	100%	100%	70%	100%	0%	40%	30%	0%	60%	80%	100%	100%	Corn plant response rating (crop injury, 0 = no effect, 100 = complete kill) at 31 g/ha [13]: 10%; Corn plant response rating (crop injury, 0 = no effect, 100 = complete kill) at 125 g/ha [13]: 50%; plant injury at 31 g/ha [14]: 0%; plant injury at 125 g/ha [14]: 20%; pest or weed control at 31 g/ha [15]: 30%; pest or weed control at 125 g/ha [15]: 50%; pest or weed control at 31 g/ha [16]: 30%; pest or weed control at 125 g/ha [16]: 60%; pest or weed control at 31 g/ha [17]: 40%; pest or weed control at 125 g/ha [17]: 80%; pest or weed control at 31 g/ha [18]: 30%; pest or weed control at 125 g/ha [18]: 90%; pest or weed control at 31 g/ha [19]: 40%; pest or weed control at 125 g/ha [19]: 80%; pest or weed control at 31 g/ha [20]: 50%; pest or weed control at 125 g/ha [20]: 90%
FCc1cccc(Oc2ncc(Cl)cn2)c1Oc1ncc(Cl)cn1 [Compound 44]	100%	100%	0%	40%	0%	20%	20%	100%	90%	100%	60%	100%	40%	75%	95%	40%	70%	80%	30%	70%	Corn plant response rating (crop injury, 0 = no effect, 100 = complete kill) at 31 g/ha [13]: 20%; Corn plant response rating (crop injury, 0 = no effect, 100 = complete kill) at 125 g/ha [13]: 70%; plant injury at 31 g/ha [14]: 20%; plant injury at 125 g/ha [14]: 80%; pest or weed control at 31 g/ha [15]: 20%; pest or weed control at 125 g/ha [15]: 70%; pest or weed control at 31 g/ha [16]: 20%; pest or weed control at 125 g/ha [16]: 30%; pest or weed control at 31 g/ha [17]: 20%; pest or weed control at 125 g/ha [17]: 90%; pest or weed control at 31 g/ha [18]: 10%; pest or weed control at 125 g/ha [18]: 90%; pest or weed control at 31 g/ha [19]: 40%; pest or weed control at 125 g/ha [19]: 80%; pest or weed control at 31 g/ha [20]: 50%; pest or weed control at 125 g/ha [20]: 80%
